The values that follow come from ChEMBL document CHEMBL2424624, “Syntheses and antitumor activities of N'1,N'3-dialkyl-N'1,N'3-di-(alkylcarbonothioyl) malonohydrazide: the discovery of elesclomol” (Bioorg Med Chem Lett, 2013).

Holding throughout (type): ADME, organism-based
Data set [1] is described as follows: AUC in rat at 5 mg/kg. Also on record: dose 5 mg/kg. As to conditions: plasma.
The nature of data set [2]: AUC in nu/nu mouse at 25 mg/kg, iv. Further details: dose 25 mg/kg, route intravenous. As to conditions: plasma.
Data set [3] can be described thus: Apparent terminal half life in nu/nu mouse at 25 mg/kg, iv. The settings on record: in vivo, read-out: betat1/2(app) (converted). Further details: dose 25 mg/kg, route intravenous.
A short description of data set [4]: Volume of distribution at steady state in nu/nu mouse at 25 mg/kg, iv. Also on record: dose 25 mg/kg, route intravenous. The settings on record: in vivo, read-out: Vdss.
Data set [5] in a line: Cmax in nu/nu mouse at 25 mg/kg, iv. Further details: dose 25 mg/kg, route intravenous. As to conditions: in vivo.
Data set [6] in a line: Half life in rat at 25 mg/kg in presence of taxol. Also on record: dose 25 mg/kg. The settings on record: in vivo.
Data set [7] is described as follows: Apparent terminal half life in Sprague-Dawley rat at 25 mg/kg, iv. Further details: dose 25 mg/kg, route intravenous. The settings on record: in vivo, read-out: betat1/2(app) (converted).
Data set [8] is described as follows: Clearance in nu/nu mouse at 25 mg/kg, iv. As to conditions: in vivo. Further details: dose 25 mg/kg, route intravenous.
Data set [9] in a line: Half life in rat at 5 mg/kg. Further details: dose 5 mg/kg. The settings on record: in vivo.
Data set [10] can be described thus: Cmax in rat at 25 mg/kg in presence of taxol. Also on record: dose 25 mg/kg. As to conditions: in vivo.
A short description of data set [11]: Half life in nu/nu mouse at 25 mg/kg in presence of taxol. Further details: dose 25 mg/kg. The settings on record: in vivo.
Data set [12] is described as follows: AUC in nu/nu mouse at 25 mg/kg in presence of taxol. Also on record: dose 25 mg/kg. The settings on record: plasma.
Data set [13] can be described thus: Cmax in nu/nu mouse at 25 mg/kg in presence of taxol. Also on record: dose 25 mg/kg. As to conditions: in vivo.
Data set [14] in a line: AUC in rat at 25 mg/kg in presence of taxol. The settings on record: plasma. Further details: dose 25 mg/kg.
The nature of data set [15]: AUC in Sprague-Dawley rat at 25 mg/kg, iv. Further details: dose 25 mg/kg, route intravenous. The settings on record: plasma.
A short description of data set [16]: Cmax in Sprague-Dawley rat at 25 mg/kg, iv. Further details: dose 25 mg/kg, route intravenous. As to conditions: in vivo.
Data set [17] is described as follows: Clearance in Sprague-Dawley rat at 25 mg/kg, iv. Also on record: dose 25 mg/kg, route intravenous. The settings on record: in vivo.
Data set [18] in a line: Volume of distribution at steady state in Sprague-Dawley rat at 25 mg/kg, iv. Further details: dose 25 mg/kg, route intravenous. As to conditions: in vivo, read-out: Vdss.
Data set [19] is described as follows: Cmax in rat at 5 mg/kg. Further details: dose 5 mg/kg. The settings on record: in vivo.
Data set [20] is described as follows: AUC in rat at 5 mg/kg in presence of STA-4783. Further details: dose 5 mg/kg. The settings on record: plasma.
Data set [21] in a line: Cmax in rat at 5 mg/kg in presence of STA-4783. Further details: dose 5 mg/kg. The settings on record: in vivo.
The nature of data set [22]: AUC in nu/nu mouse at 5 mg/kg in presence of STA-4783. Further details: dose 5 mg/kg. The settings on record: plasma.
The nature of data set [23]: Half life in nu/nu mouse at 5 mg/kg in presence of STA-4783. Further details: dose 5 mg/kg. The settings on record: in vivo.
Data set [24] in a line: Cmax in nu/nu mouse at 5 mg/kg in presence of STA-4783. Further details: dose 5 mg/kg. The settings on record: in vivo.

What is called AUC is concentration integrated over time. By Cmax is commonly meant the maximum level reached in the sampled fluid or tissue. In general, clearance refers to the rate of elimination divided by the concentration. A lower clearance goes with inefficient removal. For the molecule `CN(NC(=O)CC(=O)NN(C)C(=S)c1ccccc1)C(=S)c1ccccc1` [ELESCLOMOL], the AUC in data set [1] came to 10.3 µM·h; in data set [2] it was 35.9 µM·h; in data set [12] it was 11.9 µM·h; in data set [14] it was 36.8 µM·h; in data set [15], 32.7 µM·h. For the same molecule, the half-life in data set [3] is 1.9 h; in data set [6] it was 1.7 h; in data set [7], 1.94 h; in data set [9], 3.1 h; in [11], 1.2 h. Besides, the Vd in data set [4] came out at 0.51 L/kg; in [18], 0.1 L/kg. For the same molecule, the Cmax in [5] was determined as 85.2 µM; in data set [10] it was 63.3 µM; in data set [13] it was 37.8 µM; in data set [16], 56.3 µM; in data set [19], 21.7 µM. In addition, the values for the clearance in [8] and in data set [17] were 29 mL/min/kg and 13.2 mL/min/kg, respectively.

As for `CC(=O)O[C@H]1C(=O)[C@@]2(C)[C@H]([C@H](OC(=O)c3ccccc3)[C@]3(O)C[C@H](OC(=O)[C@H](O)[C@@H](NC(=O)c4ccccc4)c4ccccc4)C(C)=C1C3(C)C)[C@]1(OC(C)=O)CO[C@@H]1C[C@@H]2O` [PACLITAXEL], the values for the AUC in [20] and in [22] were 11.9 µM·h and 2.95 µM·h, respectively. Also, the Cmax in data set [21] is 20.4 µM; in data set [24] it was 10.6 µM. Also, the half-life in data set [23] was 2.26 h.
